This note sets out measurements from ChEMBL document CHEMBL5291721, “A preclinical secondary pharmacology resource illuminates target-adverse drug reaction associations of marketed drugs” (Nat Commun, 2023).

Assay [1] concerns the target Beta-1 adrenergic receptor (Homo sapiens, UniProt P08588). In kind it is functional.
Assay [2] concerns the target T1, Cholecystokinin receptor type A (Homo sapiens, UniProt P32238).
T1 sequence (P32238 whole entry): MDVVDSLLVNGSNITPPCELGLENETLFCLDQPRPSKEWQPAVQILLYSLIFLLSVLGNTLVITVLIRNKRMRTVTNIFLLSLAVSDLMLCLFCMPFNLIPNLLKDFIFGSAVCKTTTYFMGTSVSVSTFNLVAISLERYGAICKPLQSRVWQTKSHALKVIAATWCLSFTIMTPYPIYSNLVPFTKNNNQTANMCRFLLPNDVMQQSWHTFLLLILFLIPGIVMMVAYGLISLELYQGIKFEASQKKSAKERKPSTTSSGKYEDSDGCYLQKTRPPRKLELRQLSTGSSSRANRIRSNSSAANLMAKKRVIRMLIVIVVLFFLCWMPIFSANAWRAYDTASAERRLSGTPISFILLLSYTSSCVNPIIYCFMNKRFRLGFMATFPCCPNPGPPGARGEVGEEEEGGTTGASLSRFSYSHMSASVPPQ

The target of assay [3] is D(1A) dopamine receptor (Homo sapiens, UniProt P21728). In kind it is functional, cell-based.
The target of assay [4] is T2, Estrogen receptor (Homo sapiens, UniProt P03372).
T2 sequence (P03372 whole entry): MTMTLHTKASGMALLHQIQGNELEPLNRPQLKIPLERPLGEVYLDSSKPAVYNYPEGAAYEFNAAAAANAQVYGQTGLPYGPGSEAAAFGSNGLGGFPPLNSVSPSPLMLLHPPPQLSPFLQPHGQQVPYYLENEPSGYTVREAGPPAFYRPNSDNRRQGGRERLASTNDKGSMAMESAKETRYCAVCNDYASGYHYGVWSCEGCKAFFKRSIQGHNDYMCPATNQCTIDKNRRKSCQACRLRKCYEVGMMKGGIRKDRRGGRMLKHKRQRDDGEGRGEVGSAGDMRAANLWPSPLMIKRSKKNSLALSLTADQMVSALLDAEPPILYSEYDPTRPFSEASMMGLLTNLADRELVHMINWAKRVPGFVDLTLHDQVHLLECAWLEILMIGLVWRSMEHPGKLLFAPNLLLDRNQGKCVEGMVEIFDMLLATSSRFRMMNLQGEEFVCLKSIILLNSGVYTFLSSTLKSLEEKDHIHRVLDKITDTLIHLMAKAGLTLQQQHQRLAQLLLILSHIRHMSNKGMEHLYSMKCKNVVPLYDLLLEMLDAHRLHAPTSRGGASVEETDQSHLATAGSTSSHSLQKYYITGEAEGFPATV

Assay [5] deals with Gamma-aminobutyric acid receptor subunit alpha-1 (Rattus norvegicus, UniProt P62813).
Assay [6] has as its target Histamine H2 receptor (Homo sapiens, UniProt P25021). In kind it is functional, cell-based.
Assay [7] has as its target T3, 5-hydroxytryptamine receptor 2A (Homo sapiens, UniProt P28223). In kind it is functional, cell-based.
Assay [8] concerns the target T3, 5-hydroxytryptamine receptor 2A. In kind it is functional, cell-based. The source holds these as a separate data set.
Assay [9] addresses T4, 5-hydroxytryptamine receptor 3A (Homo sapiens, UniProt P46098).
T4 sequence (P46098 whole entry): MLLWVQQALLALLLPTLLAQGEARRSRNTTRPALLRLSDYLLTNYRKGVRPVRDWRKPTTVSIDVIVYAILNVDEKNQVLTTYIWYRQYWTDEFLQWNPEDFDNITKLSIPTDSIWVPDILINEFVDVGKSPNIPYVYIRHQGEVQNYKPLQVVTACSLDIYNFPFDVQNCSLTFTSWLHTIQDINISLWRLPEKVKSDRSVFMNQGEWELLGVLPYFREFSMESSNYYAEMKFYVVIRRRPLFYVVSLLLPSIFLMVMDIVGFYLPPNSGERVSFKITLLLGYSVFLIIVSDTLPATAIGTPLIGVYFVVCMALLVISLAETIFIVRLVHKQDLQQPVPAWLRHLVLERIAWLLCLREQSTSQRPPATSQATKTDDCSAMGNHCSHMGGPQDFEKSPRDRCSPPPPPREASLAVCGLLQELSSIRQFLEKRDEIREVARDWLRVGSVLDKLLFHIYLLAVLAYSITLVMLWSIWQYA
Type of assay: functional.

The target in assay [10] is Mu-type opioid receptor (Homo sapiens, UniProt P35372). Nature of the assay: biochemical. In kind it is functional.
In assay [11] the target is T5, Amine oxidase [flavin-containing] A (Homo sapiens, UniProt P21397).
T5 sequence (P21397 whole entry): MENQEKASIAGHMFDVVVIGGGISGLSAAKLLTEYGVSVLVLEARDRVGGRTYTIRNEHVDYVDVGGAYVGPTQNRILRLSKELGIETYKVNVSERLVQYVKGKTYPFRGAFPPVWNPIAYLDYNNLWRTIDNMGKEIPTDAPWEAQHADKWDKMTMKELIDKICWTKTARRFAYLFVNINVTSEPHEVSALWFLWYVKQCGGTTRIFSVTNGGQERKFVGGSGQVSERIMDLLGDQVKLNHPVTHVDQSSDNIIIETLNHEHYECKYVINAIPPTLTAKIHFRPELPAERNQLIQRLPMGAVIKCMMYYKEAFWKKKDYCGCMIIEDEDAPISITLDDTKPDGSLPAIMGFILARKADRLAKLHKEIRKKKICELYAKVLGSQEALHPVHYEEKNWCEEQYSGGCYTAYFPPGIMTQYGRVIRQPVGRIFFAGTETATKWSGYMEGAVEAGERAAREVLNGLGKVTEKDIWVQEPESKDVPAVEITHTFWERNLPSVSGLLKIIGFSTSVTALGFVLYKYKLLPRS
Type of assay: functional.

The target in assay [12] is Histamine H3 receptor (Homo sapiens, UniProt Q9Y5N1).

Structures are written as SMILES. A value given as a limit tells only on which side of the number the result lay.
Note: assay procedure not described here.

D(1A) dopamine receptor, sequence (P21728 whole entry): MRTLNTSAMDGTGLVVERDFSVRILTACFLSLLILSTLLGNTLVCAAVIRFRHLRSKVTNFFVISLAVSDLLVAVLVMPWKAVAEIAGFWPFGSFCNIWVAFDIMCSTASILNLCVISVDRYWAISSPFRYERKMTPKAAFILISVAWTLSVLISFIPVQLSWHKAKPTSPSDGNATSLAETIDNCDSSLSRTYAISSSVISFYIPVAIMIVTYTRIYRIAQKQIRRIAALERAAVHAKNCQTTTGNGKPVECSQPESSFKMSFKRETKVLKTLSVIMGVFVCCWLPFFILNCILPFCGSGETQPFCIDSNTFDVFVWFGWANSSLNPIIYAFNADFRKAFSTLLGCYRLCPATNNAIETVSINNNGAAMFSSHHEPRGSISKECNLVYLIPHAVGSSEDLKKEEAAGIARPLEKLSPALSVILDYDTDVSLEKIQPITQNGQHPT
Beta-1 adrenergic receptor, sequence (P08588 whole entry): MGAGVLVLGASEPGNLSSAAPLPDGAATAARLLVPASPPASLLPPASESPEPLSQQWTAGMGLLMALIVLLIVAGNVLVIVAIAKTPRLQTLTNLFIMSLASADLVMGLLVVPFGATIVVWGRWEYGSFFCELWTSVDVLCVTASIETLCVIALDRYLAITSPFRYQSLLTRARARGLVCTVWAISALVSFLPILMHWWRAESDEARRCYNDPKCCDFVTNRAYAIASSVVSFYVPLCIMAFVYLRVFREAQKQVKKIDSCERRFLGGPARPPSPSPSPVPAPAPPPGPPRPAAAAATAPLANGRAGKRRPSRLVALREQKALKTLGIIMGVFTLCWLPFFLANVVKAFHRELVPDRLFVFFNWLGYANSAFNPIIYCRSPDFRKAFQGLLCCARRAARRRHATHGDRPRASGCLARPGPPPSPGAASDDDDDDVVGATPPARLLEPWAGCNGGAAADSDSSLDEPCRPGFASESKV
Histamine H2 receptor, sequence (P25021 whole entry): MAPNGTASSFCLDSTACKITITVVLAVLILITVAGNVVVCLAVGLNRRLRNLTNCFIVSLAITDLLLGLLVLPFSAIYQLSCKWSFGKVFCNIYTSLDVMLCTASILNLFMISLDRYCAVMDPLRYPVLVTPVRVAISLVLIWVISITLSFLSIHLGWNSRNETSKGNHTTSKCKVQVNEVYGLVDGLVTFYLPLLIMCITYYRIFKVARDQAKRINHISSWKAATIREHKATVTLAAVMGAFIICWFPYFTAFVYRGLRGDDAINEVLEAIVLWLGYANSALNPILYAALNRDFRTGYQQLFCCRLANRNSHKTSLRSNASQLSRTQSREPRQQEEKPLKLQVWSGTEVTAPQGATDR
T3 sequence (P28223 whole entry): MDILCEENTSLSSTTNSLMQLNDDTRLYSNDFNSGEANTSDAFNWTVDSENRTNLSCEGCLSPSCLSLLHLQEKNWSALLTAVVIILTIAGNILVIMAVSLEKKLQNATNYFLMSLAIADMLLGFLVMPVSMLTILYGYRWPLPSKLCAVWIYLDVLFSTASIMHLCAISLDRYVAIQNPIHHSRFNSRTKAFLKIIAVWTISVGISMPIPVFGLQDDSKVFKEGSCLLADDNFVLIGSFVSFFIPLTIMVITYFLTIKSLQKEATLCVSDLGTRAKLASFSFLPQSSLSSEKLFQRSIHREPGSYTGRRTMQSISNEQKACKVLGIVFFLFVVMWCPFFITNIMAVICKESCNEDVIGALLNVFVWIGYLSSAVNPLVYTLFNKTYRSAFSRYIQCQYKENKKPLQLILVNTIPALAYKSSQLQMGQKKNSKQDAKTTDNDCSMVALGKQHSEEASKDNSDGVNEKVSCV
Gamma-aminobutyric acid receptor subunit alpha-1, sequence (P62813 whole entry): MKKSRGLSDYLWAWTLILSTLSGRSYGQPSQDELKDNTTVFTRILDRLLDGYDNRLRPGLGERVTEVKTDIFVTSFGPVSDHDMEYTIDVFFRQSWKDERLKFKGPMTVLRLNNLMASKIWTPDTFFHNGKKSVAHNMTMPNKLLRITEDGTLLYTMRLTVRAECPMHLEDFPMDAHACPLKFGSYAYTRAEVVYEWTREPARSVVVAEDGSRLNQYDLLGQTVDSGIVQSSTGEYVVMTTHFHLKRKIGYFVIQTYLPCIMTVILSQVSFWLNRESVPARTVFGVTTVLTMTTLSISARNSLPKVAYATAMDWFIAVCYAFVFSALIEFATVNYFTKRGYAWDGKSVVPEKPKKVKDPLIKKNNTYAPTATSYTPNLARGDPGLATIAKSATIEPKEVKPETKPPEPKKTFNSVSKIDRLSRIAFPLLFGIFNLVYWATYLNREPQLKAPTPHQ
Mu-type opioid receptor, sequence (P35372 whole entry): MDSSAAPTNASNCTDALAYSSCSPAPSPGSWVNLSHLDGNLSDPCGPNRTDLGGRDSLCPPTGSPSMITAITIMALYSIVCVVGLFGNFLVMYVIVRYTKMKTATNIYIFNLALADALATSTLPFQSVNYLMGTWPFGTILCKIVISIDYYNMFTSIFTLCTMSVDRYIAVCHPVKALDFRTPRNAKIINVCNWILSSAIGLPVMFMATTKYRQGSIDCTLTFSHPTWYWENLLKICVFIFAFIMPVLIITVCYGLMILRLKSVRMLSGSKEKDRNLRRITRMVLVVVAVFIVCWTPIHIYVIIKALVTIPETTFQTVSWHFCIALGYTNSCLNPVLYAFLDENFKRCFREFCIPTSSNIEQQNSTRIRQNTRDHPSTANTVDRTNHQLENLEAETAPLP
Histamine H3 receptor, sequence (Q9Y5N1 whole entry): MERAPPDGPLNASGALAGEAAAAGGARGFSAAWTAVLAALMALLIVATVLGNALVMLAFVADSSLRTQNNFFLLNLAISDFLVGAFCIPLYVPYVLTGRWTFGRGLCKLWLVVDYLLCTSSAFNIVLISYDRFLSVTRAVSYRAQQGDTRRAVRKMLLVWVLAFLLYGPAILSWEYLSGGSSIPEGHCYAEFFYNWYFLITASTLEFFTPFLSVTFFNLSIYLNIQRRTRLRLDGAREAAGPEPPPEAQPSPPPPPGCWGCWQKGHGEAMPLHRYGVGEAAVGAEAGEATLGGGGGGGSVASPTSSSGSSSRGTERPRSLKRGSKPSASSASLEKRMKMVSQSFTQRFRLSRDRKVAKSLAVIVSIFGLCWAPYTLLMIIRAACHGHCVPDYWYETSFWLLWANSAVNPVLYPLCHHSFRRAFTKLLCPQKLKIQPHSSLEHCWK

Usually AC50 stands for the midpoint of the concentration-response curve, whichever way the signal moves. A lower AC50 goes with greater potency. Consider `COc1ccccc1OCCNCC(O)c1ccc(C)c(S(N)(=O)=O)c1` (stereo not drawn) [AMOSULALOL], for which the AC50 in assay [1] is 0.06 µM; in assay [2], above 30 µM; in assay [3], above 30 µM; in assay [4], above 30 µM; in assay [5], above 30 µM; in [6], above 30 µM. Further, the AC50 in assay [7] is above 30 µM; in assay [8] it was 7.7 µM; in assay [9] it was above 30 µM; in [10] it was above 30 µM; in assay [11] it was above 30 µM; in assay [12], above 30 µM.
As to `Cc1cc(O)c(C(=O)N[C@@H](C(=O)N[C@@H]2C(=O)N3C(C(=O)O)=C(CSc4nnnn4C)CS[C@H]23)c2ccc(O)cc2)cn1` [CEFPIRAMIDE], the half-maximal activity concentration (AC50) in assay [1], in [2], in assay [3], in assay [4], in [5] and in [6] was above 30 µM throughout. In addition, the AC50 in assay [7], in assay [8], in assay [9], in assay [10], in assay [11] and in [12] was above 30 µM each time.
With `CC(C)(C)C(=O)Oc1ccc(S(=O)(=O)Nc2ccccc2C(=O)NCC(=O)O)cc1`, the AC50 in assay [1], in assay [2], in [3], in assay [4], in assay [5] and in [6] was above 30 µM in each case. In addition, the AC50 in [7], in [8], in assay [9], in assay [10], in assay [11] and in assay [12] was above 30 µM each time.
`CCC(C(=O)O)c1ccc(N2Cc3ccccc3C2=O)cc1` (stereo not drawn) [INDOBUFEN]: the AC50 in [1], in [2], in assay [3], in [4], in assay [5] and in assay [6] was above 30 µM in each case. Moreover, the half-maximal activity concentration (AC50) in assay [7], in assay [8], in assay [9], in [10], in assay [11] and in [12] was above 30 µM each time.
For the molecule `CC(C)=CCC/C(C)=C/C=C/C(C)=C/C=C/C(C)=C/C=C/C=C(C)/C=C/C=C(C)/C=C/C=C(\C)CCC=C(C)C` [LYCOPENE], the AC50 in [1] is above 30 µM; in assay [2], above 30 µM; in assay [3] it was above 30 µM; in assay [4], above 10 µM; in assay [5] it was above 30 µM; in assay [6] it was above 30 µM. Also, the AC50 in assay [7], in assay [8], in [9], in assay [10], in assay [11] and in assay [12] was above 30 µM each time.
`CCC1(CC)C(=O)NCC(C)C1=O` (stereo not drawn) [METHYPRYLON]: the AC50 in assay [1], in assay [2], in assay [3], in assay [4], in [5] and in [6] was above 30 µM in each case. The AC50 in [7], in assay [8], in assay [9], in assay [10], in [11] and in assay [12] was above 30 µM in each case.
Consider `O=C(O)C1=C(CSc2nnnn2CS(=O)(=O)O)CS[C@@H]2[C@H](NC(=O)[C@H](O)c3ccccc3)C(=O)N12` [CEFONICID], for which the AC50 in assay [1], in assay [2], in assay [3], in assay [4], in assay [5] and in assay [6] was above 30 µM each time. In addition, the AC50 in assay [7], in assay [8], in assay [9], in assay [10], in assay [11] and in [12] was above 30 µM throughout.
Regarding `CCN1CCN(C(=O)N[C@@H](C(=O)N[C@@H]2C(=O)N3C(C(=O)O)=C(CSc4nnnn4C)CS[C@H]23)c2ccc(O)cc2)C(=O)C1=O` [CEFOPERAZONE], the half-maximal activity concentration (AC50) in [1], in assay [2], in [3], in assay [4], in assay [6] and in assay [7] was above 30 µM each time. In addition, the AC50 in assay [8], in assay [9], in assay [10], in assay [11] and in [12] was above 30 µM in each case.
Take `COc1ccccc1N1CCN(CCCNc2cc(=O)n(C)c(=O)n2C)CC1`: the AC50 in assay [2], in assay [3], in [4], in assay [5], in [6] and in [7] was above 30 µM throughout. Besides, the AC50 in [8], in assay [9], in [10], in assay [11] and in [12] was above 30 µM each time.
Turning to `OC(CNCC(O)C1CCc2cc(F)ccc2O1)C1CCc2cc(F)ccc2O1` (stereo not drawn) [NEBIVOLOL], the AC50 in assay [2], in assay [3], in assay [4], in [5], in assay [6] and in [7] was above 30 µM in each case. Further, the AC50 in assay [8] was 7.1 µM; in assay [9], above 30 µM; in assay [10] it was 3.3 µM; in assay [11] it was above 30 µM; in [12] it was 23 µM.
For `CCOC(=O)[N-]c1cn(N2CCOCC2)n[o+]1` [MOLSIDOMINE], the concentration at half-maximal activity (AC50) in assay [1], in [2], in [3], in [4], in assay [5] and in assay [6] was above 30 µM throughout. Further, the AC50 in [7], in assay [8], in assay [9], in assay [10] and in assay [12] was above 30 µM in each case.
